One assay concerns the target T1, mTOR (Homo sapiens, UniProt P42345+P62942).
T1 construct: endogenous in cells
As to the kind of experiment: p70 S6K phosphorylation immunoblot. The class given is cell-based. The note with it: targeting concentrations.

For assay [1], the system named is HS578T subcutaneous xenografts. As to the kind of experiment: HS578T subcutaneous xenografts, AdSyn-CO335 study. The note with it: 28 days, 8 mg/kg rapamycin alone, no virus infection.
Protocol: Oncolytic activity of AdSyn-CO335 was tested in vitro and in vivo. HS578T cells were infected with a serial dilution of AdSyn-CO335. At 24, 48, 72 and 96 hours after infection, fresh rapamycin or AP21967 was added to 50 nM. The metabolic activity was quantified by WST-1 assay, and was normalized to uninfected cells with a matching drug treatment. […] To evaluate AdSyn-CO335 in vivo, HS578T subcutaneous xenografts were established in mice. […]
Two perpendicular tumor diameters (l and w) were measured weekly to follow tumor progression. Tumor volumes were calculated by use of the modified ellipsoid formula where vol=½ (l*w^2) (Euhus et al., J Surg Oncol 31(4):229-2341986; Tomayko et al., Cancer Chemother Pharmacol 24(3):148-154, 1989).
On days 0, 3, and 6, mice were injected intratumorally with 2×10^8 PFU of adenovirus diluted in 50 μl PBS. […] Body weight was monitored for toxicity, and tumor sizes were measured while blinded to treatment groups. […]

For the compound `CO[C@H]1[C@@H](O)[C@H](C)C[C@H](C)/C=C/C=C/C=C(\C)[C@@H](c2c[nH]c3c(C)cccc23)C[C@@H]2CC[C@@H](C)[C@@](O)(O2)C(=O)C(=O)N2CCCC[C@H]2C(=O)O[C@H]([C@H](C)C[C@@H]2CC[C@@H](O)[C@H](OC)C2)C[C@H](O)[C@H](C)/C=C(\C)[C@H]1O` [AP21967], the “phosphorylation of p70 S6K (mTOR inhibition)” value at mTOR was “does not inhibit mTOR at targeting concentrations”. Consider `CO[C@H]1C[C@@H]2CC[C@@H](C)[C@@](O)(O2)C(=O)C(=O)N2CCCC[C@H]2C(=O)O[C@H]([C@H](C)C[C@@H]2CC[C@@H](O)[C@H](OC)C2)CC(=O)[C@H](C)/C=C(\C)[C@@H](O)[C@@H](OC)C(=O)[C@H](C)C[C@H](C)/C=C/C=C/C=C/1C` [rapamycin, Rapamycin], for which the mean tumor volume in assay [1] came to 229±49 mm^3.

These data come from patent US12514887B2, “Oncolytic tumor viruses and methods of use” (priority 2014, dated 2026).
